Here are results for 23 molecules from patent publication US7030134B2, “Pyrazolopyridinyl pyridine and pyrimidine therapeutic compounds” (SmithKline Beecham Corporation, priority 2001, dated 2006).

SMILES strings stand for the structures.

The test has as its system HSV-1. As to the kind of experiment: HSV-1 replication in infected Vero 76 cells, DNA hybridization capture assay. Format: cell-based, herpes simplex virus 1. The following applies: Human alphaherpesvirus 1; HSV-1 (MOI=0.001) in Vero 76 cells, 40–48 hours incubation, HSV DNA hybridization chemiluminescence readout; read-out: IC50. On the procedure:
Vero 76 cells were maintained in MEM with Earle's salts, L-glutamine, 8% FBS (Hyclone, A-1111-L) and 100 units/mL Penicillin-100 μg/mL Streptomycin. For assay conditions, FBS was reduced to 2%. Cells are seeded into 96-well tissue culture plates at a density of 5×10^4 cells/well after being incubated for 45 min at 37° C. in the presence of HSV-1 or HSV-2 (MOI=0.001). Test compounds are added to the wells and the plates are incubated at 37° C. for 40–48 hours. Cell lysates are prepared as follows: media was removed and replaced with 150 μL/well 0.2 N NaOH with 1% Igepal CA 630 or NP-40. Plates were incubated up to 14 days at room temperature in a humidified chamber to prevent evaporation.
For the detection probe, a gel-purified, digoxigenin-labeled, […] PCR fragment of the HSV UL-15 sequence was utilized. PCR conditions included 0.5 μM primers, 180 μM dTTP, 20 μM dUTP-digoxigenin (Boehringer Mannheim 1558706), 200 μM each of dATP, dCTP, and dGTP, 1×PCR Buffer II (Perkin Elmer), 2.5 mM MgCl2, 0.025 units/μL of AmpliTaq Gold polymerase (Perkin Elmer), and 5 ng of gel-purified HSV DNA per 100 μL. Extension conditions were 10 min at 95° C., followed by 30 cycles of 95° C. for 1 min, 55° C. for 30 sec, and 72° C. for 2 min. The amplification was completed with a 10-min incubation at 72° C. Primers were selected to amplify a 728 bp probe spanning a section of the HSV1 UL 15 open reading frame (nucleotides 249–977). Single-stranded transcripts were purified with Promega M13 Wizard kits. The final product was mixed 1:1 with a mixture of 6 M GuSCN, 100 mM EDTA and 200 μg/mL herring sperm DNA and stored at 4° C.
The capture DNA plasmid (HSV UL13 region in pUC) was linearized by cutting with Xba I, denatured for 15 min at 95° C. and diluted immediately into Reacti-Bind DNA Coating Solution (Pierce, 17250, diluted 1:1 with TE buffer, pH 8) at 1 ng/μL 75 μL/well were added to Corning (#3922 or 9690) white 96-well plates and incubated at room temperature for at least 4 hrs before washing twice with 300 μL/well 0.2×SSC/0.05% Tween-20 (SSC/T buffer). The plates were then incubated overnight at room temperature with 150 μL/well 0.2 N NaOH, 1% IGEPAL and 10 μg/mL herring sperm DNA.
Twenty-seven (27) μL of cell lysate was combined with 45 μL of hybridization solution (final concentration:3M GuSCN, 50 mM EDTA, 100 μg/ml salmon sperm DNA, 5× Denhardt's solution, 0.25×APE, and 5 ng of the digoxigenin-labeled detection probe). APE is 1.5 M NH4-acetate, 0.15 M NH4H2 phosphate, and 5 mM EDTA adjusted to pH 6.0. Mineral oil (50 μL) was added to prevent evaporation. The hybridization plates were incubated at 95° C. for 10 minutes to denature the DNA, then incubated at 42° C. overnight. The wells were washed 6× with 300 μL/well SSC/T buffer then incubated with 75 μL/well anti-digoxigenin-HRP-conjugated antibody (Boehringer Mannheim 1207733, 1:5000 in TE) for 30 min at room temperature. The wells were washed 6× with 300 μL/well with PBS/0.05% Tween-20 before 75 μL/well SuperSignal LBA substrate (Pierce) was added. The plates were incubated at room temperature for 30 minutes and chemiluminescence was measured in a Wallac Victor reader.
The following results were obtained for HSV-1.
Take `Fc1ccc(-c2nn3c(NC4CCCC4)c(C(F)(F)F)ccc3c2-c2ccnc(N3CCCC3)n2)cc1` [Example 1, N-Cyclopentyl-2-(4-fluorophenyl)-3-[2-(1-pyrrolidinyl)-4-pyrimidinyl)-6-(trifluoromethyl)pyrazolo[1,5-a]pyridin-7-amine]: the IC50 was found to be 5.3 µM. Next, `Fc1ccc(-c2nn3c(NC4CCCC4)c(C(F)(F)F)ccc3c2-c2ccnc(NC3CCCC3)n2)cc1` [Example 2, N-Cyclopentyl-3-[2-(cyclopentylamino)-4-pyrimidinyl]-2-(4-fluorophenyl)-6-(trifluoromethyl)pyrazolo[1,5-a]pyridin-7-amine]: 3.3 µM; `CCOC(=O)c1ccc2c(-c3ccnc(NC4CCCC4)n3)c(-c3ccc(F)cc3)nn2c1NC1CCCC1` [Example 3, Ethyl 7-(cyclopentylamino)-3-[2-(cyclopentylamino)-4-pyrimidinyl]-2-(4-fluorophenyl)pyrazolo[1,5-a]pyridine-6-carboxylate]: 6.3 µM; `O=C(O)c1ccc2c(-c3ccnc(NC4CCCC4)n3)c(-c3ccc(F)cc3)nn2c1NC1CCCC1` [Example 4, 7-(Cyclopentylamino)-3-[2-(cyclopentylamino)-4-pyrimidinyl]-2-(4-fluorophenyl)pyrazolo[1,5-a]pyridine-6-carboxylic acid]: 0.5 µM. Next, `O=C(c1ccc2c(-c3ccnc(NC4CCCC4)n3)c(-c3ccc(F)cc3)nn2c1NC1CCCC1)N1CCCC1` [Example 5, N-Cyclopentyl-3-[2-(cyclopentylamino)-4-pyrimidinyl]-2-(4-fluorophenyl)-6-(1-pyrrolidinylcarbonyl)pyrazolo[1,5-a]pyridin-7-amine]: 4.1 µM; `CN(C)C(=O)c1ccc2c(-c3ccnc(NC4CCCC4)n3)c(-c3ccc(F)cc3)nn2c1NC1CCCC1` [Example 6, 7-(Cyclopentylamino)-3-[2-(cyclopentylamino)-4-pyrimidinyl]-2-(4-fluorophenyl)-N,N-dimethylpyrazolo[1,5-a]pyridine-6-carboxamide]: 4 µM; `O=C(NO)c1ccc2c(-c3ccnc(NC4CCCC4)n3)c(-c3ccc(F)cc3)nn2c1NC1CCCC1` [Example 7, 7-(Cyclopentylamino)-3-[2-(cyclopentylamino)-4-pyrimidinyl]-2-(4-fluorophenyl)-N-hydroxypyrazolo[1,5-a]pyridine-6-carboxamide]: 1 µM. With `O=C(NCCN1CCOCC1)c1ccc2c(-c3ccnc(NC4CCCC4)n3)c(-c3ccc(F)cc3)nn2c1NC1CCCC1` [Example 8, 7-(Cyclopentylamino)-3-[2-(cyclopentylamino)-4-pyrimidinyl]-2-(4-fluorophenyl)-N-[2-(4-morpholinyl)ethyl]pyrazolo[1,5-a]pyridine-6-carboxamide], the half-maximal inhibitory concentration (IC50) came out at 5 µM.

On to `O=C(NCCCn1ccnc1)c1ccc2c(-c3ccnc(NC4CCCC4)n3)c(-c3ccc(F)cc3)nn2c1NC1CCCC1` [Example 9, 7-(Cyclopentylamino)-3-[2-(cyclopentylamino)-4-pyrimidinyl]-2-(4-fluorophenyl)-N-[3-(1H-imidazol-1-yl)propyl]pyrazolo[1,5-a]pyridine-6-carboxamide], for which the IC50 is 0.5 µM. With `O=C(NC(CO)CO)c1ccc2c(-c3ccnc(NC4CCCC4)n3)c(-c3ccc(F)cc3)nn2c1NC1CCCC1` [Example 10, 7-(Cyclopentylamino)-3-[2-(cyclopentylamino)-4-pyrimidinyl]-2-(4-fluorophenyl)-N-[2-hydroxy-1-(hydroxymethyl)ethyl]pyrazolo[1,5-a]pyridine-6-carboxamide] the figure was 4.2 µM; with `OCc1ccc2c(-c3ccnc(NC4CCCC4)n3)c(-c3ccc(F)cc3)nn2c1NC1CCCC1` [Example 11, [7-(Cyclopentylamino)-3-[2-(cyclopentylamino)-4-pyrimidinyl]-2-(4-fluorophenyl)pyrazolo[1,5-a]pyridin-6-yl]methanol], 0.97 µM; with `Fc1ccc(-c2nn3c(Cl)cc(Cl)cc3c2-c2ccnc(NC3CCCC3)n2)cc1` [Example 12, N-Cyclopentyl-4-[5,7-dichloro-2-(4-fluorophenyl)pyrazolo[1,5-a]pyridin-3-yl]-2-pyrimidinamine], 7 µM.

For `Fc1ccc(-c2nn3c(NC4CCCC4)cc(Cl)cc3c2-c2ccnc(NC3CCCC3)n2)cc1` [Example 13, N-{4-[5-Chloro-7-(cyclopentylamino)-2-(4-fluorophenyl)pyrazolo[1,5-a]pyridin-3-yl]-2-pyrimidinyl}-N-cyclopentylamine], the concentration for half-maximal inhibition (IC50) is 0.17 µM.

`Fc1ccc(-c2nn3c(NC4CCCC4)cc(NC4CCCC4)cc3c2-c2ccnc(NC3CCCC3)n2)cc1` [Example 14, N^5,N^7-Dicyclopentyl-3-[2-(cyclopentylamino)-4-pyrimidinyl]-2-(4-fluorophenyl)pyrazolo[1,5-a]pyridine-5,7-diamine]: the half-inhibitory concentration (IC50) came to 0.24 µM. With `CC(C)Nc1cc(Cl)cc2c(-c3ccnc(NC4CCCC4)n3)c(-c3ccc(F)cc3)nn12` [Example 15, 5-Chloro-3-[2-(cyclopentylamino)-4-pyrimidinyl]-2-(4-fluorophenyl)-N-isopropylpyrazolo[1,5-a]pyridin-7-amine] the figure was 1.45 µM; with `CC(C)Nc1cc(NC(C)C)n2nc(-c3ccc(F)cc3)c(-c3ccnc(NC4CCCC4)n3)c2c1` [Example 16, 3-[2-(Cyclopentylamino)-4-pyrimidinyl]-2-(4-fluorophenyl)-N^5,N^7-diisopropylpyrazolo[1,5-a]pyridine-5,7-diamine], 0.55 µM. Regarding `COc1ccc(-c2nn3c(Cl)cc(Cl)cc3c2-c2ccnc(NC3CCCC3)n2)cc1` [Example 17, N-Cyclopentyl-4-[5,7-dichloro-2-(4-methoxyphenyl)pyrazolo[1,5-a]pyridin-3-yl]-2-pyrimidinamine], the IC50 worked out at 5.2 µM. Next, `COc1ccc(-c2nn3c(NC4CCCC4)cc(Cl)cc3c2-c2ccnc(NC3CCCC3)n2)cc1` [Example 18, N-{4-[5-Chloro-7-(cyclopentylamino)-2-(4-methoxyphenyl)pyrazolo-[1,5-a]pyridin-3-yl]-2-pyrimidinyl}-N-cyclopentylamine]: 0.25 µM; `Cc1cccc(-c2nn3c(NC4CCCC4)cc(Cl)cc3c2-c2ccnc(NC3CCCC3)n2)c1` [Example 19, 5-Chloro-N-cyclopentyl-3-[2-(cyclopentylamino)pyrimidin-4-yl]-2-(3-methylphenyl)pyrazolo[1,5-a]pyridin-7-amine]: 0.2 µM; `Cc1cccc(-c2nn3c(NC4CC4)cc(Cl)cc3c2-c2ccnc(NC3CCCC3)n2)c1` [Example 20, 5-Chloro-3-[2-(cyclopentylamino)pyrimidin-4-yl]-N-cyclopropyl-2-(3-methylphenyl)pyrazolo[1,5-a]pyridin-7-amine]: 0.5 µM.

Regarding `Cc1cccc(-c2nn3c(NC4CCCC4)cc(Cl)cc3c2-c2ccnc(NC3CC3)n2)c1` [Example 21, 5-Chloro-N-cyclopentyl-3-[2-(cyclopropylamino)pyrimidin-4-yl]-2-(3-methylphenyl)pyrazolo[1,5-a]pyridin-7-amine], the IC50 was found to be 0.6 µM. With `Fc1ccc(-c2nn3c(NC4CC4)cc(Cl)cc3c2-c2ccnc(NC3CCCC3)n2)cc1` [Example 22, 5-Chloro-3-[2-(cyclopentylamino)-4-pyrimidinyl]-N-cyclopropyl-2-(4-fluorophenyl)pyrazolo[1,5-a]pyridin-7-amine] the figure was 0.2 µM; with `CN1CCN(c2cc(Cl)cc3c(-c4ccnc(NC5CCCC5)n4)c(-c4ccc(F)cc4)nn23)CC1` [Example 23, 4-[5-Chloro-2-(4-fluorophenyl)-7-(4-methyl-1-piperazinyl)pyrazolo[1,5-a]pyridin-3-yl]-N-cyclopentyl-2-pyrimidinamine], 0.5 µM.

The IC50 is the point on the concentration scale where inhibition reaches its midpoint.
